The values that follow come from patent US11723947B2, “Anti-senescence compounds and uses thereof” (Erasmus University Medical Center Rotterdam, priority 2015, dated 2023).

Peptide text beside a SMILES is read from it. * marks the point of attachment. Cbz = O=C(OCc1ccccc1)*; CH2F = FC*

The subject of series [1] is Senescent and control IMR90. The note with it: for effect on effectiveness of FOXO4 DRI in lowering senescent cell viability: viability measured one day earlier; for effect of pan-caspase inhibitor on the FOXO4 DRI effect on senescent cell viability: 20 μM inhibitor, 25 μM FOXO4 DRI, senescent IMR90, 6 days. The procedure:
The selectivity index (S.I.) for the EC50 values was determined after […] (GraphPad Prism) of the curves. […] Real-time cell density was measured using an xCELLigence detection system (ACEA Biosciences). Prior to the start of the measurement 50 μL DMEM 10% FCS was added to each well of an E-plate view 16 (Roche) to determine background signal. Non-senescent (2000 cells per well) and senescent (5000 cells/well) IMR90 fibroblasts were then plated in 150 μl medium. 16 hours later the E-plate was placed in the xCELLigence reader and the cell density was recorded every 30 minutes. […] Measurements continued for the indicated time-points. […] Experiment as in FIG. 2C, but with the indicated peptides. […] Cells were plated in 4-well Poly-L-Lysine coated glass bottom 35 mm dishes (D141410; Matsumi, Japan) and incubated with NucView488 Caspase-3 (4440; Essen Bioscience). […] 8h after addition the real-time imaging was initiated and every 30 min a grid of 3×3 pictures was imaged. The imaging continued for another 6 days and the images were concatenated using Zen imaging software. […] After 6 days cell viability was determined as in FIG. 2C). […] Experiment as in FIG. 2C, but according to the indicated treatment plan. Instead of one single dose, three doses were given (one day in between) of ⅓ that concentration each time. […] Left: Experiment as in FIG. 2C, but on cells pretreated once daily for two days with IL-1α Receptor Antagonist (RA), which blocks IL-1α/β signaling, recombinant IL-6 and recombinant IL-1α/β. […] Right: Similar experiment as in the left panel, except viability measured one day earlier. […] In senescent cells p53 signaling causes upregulation of the cell-cycle arrest and pro-survival protein p21Cip1. […] Experiment as in FIG. 2K. […] Experiment as in FIG. 2c, but with control and senescent IMR90 stable transduced with shRNAs against p53 or a control shRNA (shGFP).
A) Control IMR90 and IMR90 induced to senesce through 10Gy IR were plated in triplicate for each condition in a 96-well plate. […] After 6 days viability was determined through AqeousOne celltiter assay (Promega) according to the manufacturer's instructions.
Non-senescent (=“normal”, proliferating) IMR90 cells (ATCC #CCL-186, a diploid primary human fibroblast adherent cell line derived from fetal lung tissue) were irradiated with 10Gy Gamma-IR (IR=irradiation). After 7 days these cells are senescent and can be used for experiments comparing them to their non-irradiated (=non-senescent) counterparts. Senescent and non-senescent IMR90 fibroblasts were plated for longitudinal cell density measurement using the xCELLigence system (ACEA Biosciences, Inc., San Diego, Calif.).
5000 senescent (obtained as described above) and 2000 non-senescent IMR90 fibroblasts were plated in 96-well plates incubated with concentrations of NQDI between 0-20 μM and after 6 days cell viability was determined by AqueousOne CellTiter (MTT) assay according to the manufacturer's instructions.
5000 senescent (obtained as described above) and 2000 non-senescent IMR90 fibroblasts were plated in 96-well plates incubated with concentrations of R406, ranging from 16, 32, 64 to 128 nM and after 6 days cell viability was determined by AqueousOne CellTiter (MTT) assay according to the manufacturer's instructions.
Normal human IMR90 fibroblasts were exposed to 10 Gy Ionizing Radiation or treated 3× (bidaily) with 0.5 μM Doxorubicin. Seven days later they were processed for SA-β-Gal staining to visualize senescent cells. […] DAPI was used as a counterstain to visualize nuclei. […] After 6 days the cell viability was determined using an AqueousOne Celltiter (MTT) assay according to the manufacturer's instructions.

For series [2], the system named is p16^ink4a-positive senescence. As to the kind of experiment: Doxorubicin-induced senescence in p16::3MR mice (RLUC bioluminescence, SA-beta-GAL). The class given is in vivo, mouse. The procedure:
IMR90 cells were exposed twice to 0.5 μM Doxorubicin with one day in between. SA-β-GAL activity was determined 7 days later. […] This figure complements FIG. 4A+B by showing that next to the senescence markers SA-β-Gal and p16^ink4a also the SASP marker IL-6 is elevated by Doxorubicin. […] Mice were i.p. injected with 10 mg/kg Doxorubicin and analyzed for RLUC on the indicated time-points. Changes in RLUC intensity for 5 animals are plotted for the indicated timepoints after injection. […] Following one dose of Doxorubicin (10 mg/kg, i.p.) the mice were treated with FOXO4 DRI (n=6; 4×10 mg/kg i.v.) or PBS (n=4; 4× Mock) and processed for RLUC imaging after 14 d. […] Mice treated as indicated in FIG. 4F were analyzed for Bioluminescence. […] H) To improve the window for measuring healthspan changes, the treatment regime from FIG. 4F) was extended with one additional dose of Doxorubicin and milder FOXO4 DRI treatment. Following two doses of Doxorubicin (both 10 mg/kg i.p.) the mice (n=3 each group) were subsequentially treated with PBS or FOXO4 DRI (3×5 mg/kg, 1 d in between) and 14 d later analyzed for changes in healthspan. […] Post-mortem analysis of liver sections from mice (n=2 each group) treated as in FIG. 4H and stained for FOXO4. The number of FOXO4 foci was objectively quantified using ImageJ. […] Mice treated as depicted in FIG. 4H (n=9 for PBS, n=11 for FOXO4 DRI) were analyzed for total body weight before and after Doxorubicin-exposure followed by treatment with PBS or FOXO4 DRI. […]
Our senescence-detection model makes use of a construct in which the promoter of p16^ink4a drives a so-called trimodality reporter (3MR) referred to as p16::3MR. […] RLUC and RFP allow visualization of senescent cells in real-time through bioluminescence and fluorescence, respectively. […] On day 0, p16::3MR mice (Demaria et al., Developmental Cell, 31:6 p. 722-733 (2014)) including the Supplemental Experimental procedures) were i.p. injected with 10 mg/kg Doxorubicin and RLUC activity as measure of senescence was determined on the indicated timepoints. […]

For the next series, the system named is Doxorubicin-treated mice. As to the kind of experiment: Doxorubicin-treated mice: liver sections, body weight, plasma ASAT and Amylase. The class given is in vivo. The procedure:
IMR90 cells were exposed twice to 0.5 μM Doxorubicin with one day in between. SA-β-GAL activity was determined 7 days later. […] Mice were i.p. injected with 10 mg/kg Doxorubicin and analyzed for RLUC on the indicated time-points. Changes in RLUC intensity for 5 animals are plotted for the indicated timepoints after injection. […] Mice treated as indicated in FIG. 4F were analyzed for Bioluminescence. […] Liver sections from the experiment in FIG. 4I were stained for IL-6. […] The ratio was plotted. […] Experiment as in FIG. 4H. n=3 animals per group.

The next series concerns IMR90 cells. Kind of series: Senescence markers in Doxorubicin-treated IMR90 in vitro. It counts as cell-based, human. The procedure:
IMR90 cells were exposed twice to 0.5 μM Doxorubicin with one day in between. SA-β-GAL activity was determined 7 days later. […] This figure complements FIG. 4A+B by showing that next to the senescence markers SA-β-Gal and p16^ink4a also the SASP marker IL-6 is elevated by Doxorubicin. […] Mice were i.p. injected with 10 mg/kg Doxorubicin and analyzed for RLUC on the indicated time-points. Changes in RLUC intensity for 5 animals are plotted for the indicated timepoints after injection. […] Following one dose of Doxorubicin (10 mg/kg, i.p.) the mice were treated with FOXO4 DRI (n=6; 4×10 mg/kg i.v.) or PBS (n=4; 4× Mock) and processed for RLUC imaging after 14 d. […] Mice treated as indicated in FIG. 4F were analyzed for Bioluminescence. […] H) To improve the window for measuring healthspan changes, the treatment regime from FIG. 4F) was extended with one additional dose of Doxorubicin and milder FOXO4 DRI treatment. Following two doses of Doxorubicin (both 10 mg/kg i.p.) the mice (n=3 each group) were subsequentially treated with PBS or FOXO4 DRI (3×5 mg/kg, 1 d in between) and 14 d later analyzed for changes in healthspan. […] Post-mortem analysis of liver sections from mice (n=2 each group) treated as in FIG. 4H and stained for FOXO4. The number of FOXO4 foci was objectively quantified using ImageJ. […] Liver sections from the experiment in FIG. 4I were stained for IL-6. […] Mice treated as depicted in FIG. 4H (n=9 for PBS, n=11 for FOXO4 DRI) were analyzed for total body weight before and after Doxorubicin-exposure followed by treatment with PBS or FOXO4 DRI. The ratio was plotted. […] Experiment as in FIG. 4H. n=3 animals per group.
DAPI was used as a counterstain to visualize nuclei. […] The histograms show % viability for the indicated conditions (.

As to `C[C@]12CCC(=O)C=C1CC[C@@H]1[C@@H]2[C@@H](O)C[C@@]2(C)[C@H]1CC[C@]2(O)C(=O)CO` [Cortisol], the “effect on effectiveness of FOXO4 DRI in lowering senescent cell viability” value in series [1] is “reduce the effectiveness of FOXO4 DRI in lowering senescent cell viability”. `CC(C)[C@H](NC(=O)c1ccc2ccccc2n1)C(=O)N[C@@H](CC(=O)O)C(=O)COc1c(F)cccc1F` [QVD-OPH]: the “effect of pan-caspase inhibitor on the FOXO4 DRI effect on senescent cell viability” value in series [1] is “potently blocked the effect of FOXO4 DRI to reduce senescent cell viability”. As to `COc1cc(Nc2ncc(F)c(Nc3ccc4c(n3)NC(=O)C(C)(C)O4)n2)cc(OC)c1OC` [R406, 6-(5-fluoro-2-(3,4,5-trimethoxyphenylamino)pyrimidin-4-ylamino)-2,2-dimethyl-2H-pyrido[3,2-b][1,4] oxazin-3 (4H)-one benzenesulfonate], the “% viability over Mock, senescent and non-senescent IMR90” value in series [1] (16, 32, 64 to 128 nM, 6 days) is recorded as “selectively reduces senescent cell viability”. Further, the “SA-beta-GAL deposits in kidneys” value in series [2] (Doxorubicin 10 mg/kg i.p. day 0, once daily i.v. day 11-14) is “reduced SA-beta-GAL deposits in kidneys”. The “Doxorubicin-induced senescence in vivo (bioluminescence)” value in series [2] (Doxorubicin 10 mg/kg i.p. day 0, once daily i.v. day 11-14, imaging day 11 and day 21) is reported as “repress Doxorubicin-induced senescence in vivo”. Regarding “IL-1RA: IL-1α Receptor Antagonist, which blocks IL-1α/β signaling”, the “effect of pretreatment on effectiveness of FOXO4 DRI for killing senescent cells” value in series [1] (pretreated once daily for two days, FOXO4 DRI 12.5 μM) is on record as “reduced the effectiveness of FOXO4 DRI”.

For `O=c1c(O)c(-c2ccc(O)c(O)c2)oc2cc(O)cc(O)c12` [Quesrcetin], in series [1] (Quesrcetin alone), the “clearing of senescent IMR90, viability senescent vs non-senescent” value is recorded as “inefficent towards clearing senescent IMR90”. With `CN(C)CC[C@H](CSc1ccccc1)Nc1ccc(S(=O)(=O)NC(=O)c2ccc(N3CCN(Cc4ccccc4-c4ccc(Cl)cc4)CC3)cc2)cc1[N+](=O)[O-]` [ABT-737], the “toxicity to non-senescent cells” value in series [1] was “proved to be toxic to non-senescent cells”. In series [1] (3× at ⅓, 3 days in between, senescence by IR), the “killing/clearing of senescent cells” value is recorded as “only showed limited effectiveness on killing senescent cells”. Turning to `COc1cccc2c1C(=O)c1c(O)c3c(c(O)c1C2=O)C[C@@](O)(C(=O)CO)C[C@@H]3O[C@H]1C[C@H](N)[C@H](O)[C@H](C)O1` [Doxorubicin], in the series on Doxorubicin-treated mice (mouse, in vivo, ip, 10 mg/kg), the “organ toxicity (liver, pancreas)” value is recorded as “caused organ toxicity”. Moreover, the total body weight result with Doxorubicin-treated mice (two doses 10 mg/kg i.p., mice) is “causes a drop in body weight”. The SA-β-GAL expression result in the series on IMR90 cells (IMR90, twice 0.5 μM, 7 days later) is given as “induces SA-β-GAL expression in IMR90 cells in vitro”. In the series on IMR90 cells (IMR90 in vitro), the “IL-6 (SASP marker)” value is “induces IL-6, indicative of elevated SASP”; the “expression of p16^ink4a and FOXO4” value was “induces expression of p 16^ink4a and FOXO4 in IMR90 in vitro”. In addition, in series [2] (10 mg/kg i.p., p16::3MR mice), the “induction of senescence in vivo (RLUC)” value is on record as “induces p16^ink4a-mediated senescence in vivo”. On to Lipopolysaccharide, for which, in series [1], the “effect on effectiveness of FOXO4 DRI in lowering senescent cell viability” value is “improves it”. For the compound `COC(=O)C[C@H](NC(=O)[C@H](C)NC(=O)[C@@H](NC(=O)OCc1ccccc1)C(C)C)C(=O)CF` [ZVAD-FMK] (Cbz-Val-Ala-Asp(OMe)-CH2F), the “effect of pan-caspase inhibitor on the FOXO4 DRI effect on senescent cell viability” value in series [1] is recorded as “potently blocked the effect of FOXO4 DRI to reduce senescent cell viability”.
